Results reported in patent publication EP1891955A1, “Use of 1,2,3-substituted indolizine derivatives, inhibitors of FGFs, for the preparation of a medicament intended for the treatment of degenerative joint diseases” (Sanofi-Aventis, priority 2006, dated 2008).
Marks after values point to notes of the source that are not given here.

Tested on: STR/1N mice
Experiment: Knee joint damage in STR/1N mice developing osteoarthritis spontaneously (semi-quantitative histopathological score)
Format: in vivo
Details: male STR/1N mice, 6-week treatment
Experimental: The effect of an FGF-antaqonist on the degree of knee joint damage in STR/1N mice, which develop osteoarthritis spontaneously
The experiment was performed according to the regulations of the German Animal Protection Law. Fifty 9-week old male STR/1N mice (strain bred and maintained at sanofi-aventis, Dept. of Laboratory Animal Safety and Welfare, D-65926 Frankfurt/Main, Germany) were randomized to 2 experimental groups (n=25/group). The animals were housed individually in standard mouse cages (room temperature 20 - 22°C; relative humidity 55-75%; 12 hours light/dark cycle) with free access to the powdered mouse standard food (Sniff R/M-H, Soest, Germany) and tap water. To achieve sustained drug exposure, the sodium 2-amino-5-[(1-methoxy-2-methylindolizin-3-yl)carbonyl]benzoic acid monohydrate was blended with the standard food at concentrations of 300 ppm (0.3 g/kg food) and administered to one experimental group of 25 mice ad libitum. The control group of 25 mice received unsupplemented standard food. Following the 6-week treatment period the animals were sacrificed by CO2 inhalation, their left knee joints were removed and decalcified for 3 days with formic acid (decalcifier, Shandon, Frankfurt/M., Germany), fixed in formalin and embedded in paraffin. Four sequential coronal sections of the complete knee joints (7 µm, 0.1 mm apart), stained with Hematoxyline-Eosine and Saffranin-O were evaluated by a blinded observer for the degree of histopathological joint alterations by using a semi-quantitative score as described in Table 1. Table 1: Semiquantitative Histopathological Score of Osteoarthritic Joint Damage in STR/1N Mice
The osteoarthritis joint damage was assessed by a semi-quantitative histopathological score. The STR/1N mice developed moderate osteoarthritis in the medial tibial plateau of the knee joint.

**Q.** Which “Histopathological Score Mean (SEM)” value (300 ppm (0.3 g/kg food) in food ad libitum, left knee joint, maximal total joint score = 128, p = 0.0118 Mann Whitney Test vs control 34.3 (3.8)) does the source give for `COc1c(C)c(C(=O)c2ccc(N)c(C(=O)O)c2)n2ccccc12.O.[Na]` [sodium 2-amino-5-[(1-methoxy-2-methylindolizin-3-yl)carbonyl]benzoic acid monohydrate] here?
**A.** The value was 23.5 (3.7)*.

**Q.** And the tolerability (300 ppm in food)?
**A.** Its tolerability is “well tolerated”.

**Q.** And the “reduction of the degree of histopathological joint damage” value (300 ppm in food, versus non-treated control)?
**A.** The value was 32%.
